Results published in the NIST ThermoML archive (doi:10.1021/acs.jced.5b00412).

Experiment: wn = mass fraction of the nth substance listed
Details: 101.3 kPa, Liquid, Vibrating tube method

NCCCO [3-amino-1-propanol] + O
mass density [kg/m3]
Details	w1 = 0.1	w1 = 0.2	w1 = 0.3	w1 = 0.41	w1 = 0.51	w1 = 0.61	w1 = 0.7	w1 = 0.8	w1 = 0.91	w1 = 1
293.15 K	998.7	1002.2	1005.9	1008.8	1011.3	1015.4	1014.9	1009.8	1001.4	987.5
298.15 K	997.3	1000.4	1003.7	1006	1008.2	1011.8	1011.2	1005.9	997.5	983.6
303.15 K	995.7	998.4	1001.3	1003.1	1005	1008	1007.3	1002	993.5	979.6
308.15 K	993.9	996.3	998.8	1000.1	1001.8	1003.9	1003.4	998	989.5	975.5
313.15 K	991.9	994	996.2	997.1	998.5	1001	999.2	994	985.5	971.5
318.15 K	989.7	991.6	993.3	993.9	995	997.2	995.6	990	981.5	967.5
323.15 K	987.3	989	990.6	990.6	991.5	993.3	991.7	986	977.5	963.4
328.15 K	984.8	986.3	987.6	987.9	988	989.5	987.8	981.9	973.4	959.3
333.15 K	983	983.5	984.5	984.5	984.4	985.6	983.9	977.7	969.3	955.8
338.15 K	980.3	980.5	981.3	981.9	980.8	981.6	979.9	973.2	965.2	951.7
343.15 K	977.5	977.5	978	978.3	977.5	977.6	975.8	969.1	961	947.6
348.15 K	974.5	974.3	974.6	974.7	972.9	973.6	971.6	965.1	956.9	943.5
353.15 K	971.2	971	971.1	971.1	970.8	969.5	967.4	961.2	952.7	939.3
